Laboratory results as given in patent publication US5298414A (priority 1989, dated 1994).
“Also recorded” adds a separate entry of the source. Like-named read-outs stand apart in the source and are kept apart here.

Key:
[1] = biological target: T1, morphine dehydrogenase (MDH) (Pseudomonas putida, UniProt Q02198); format: biochemical, Pseudomonas putida MlO
[2] = biological target: T1, morphine dehydrogenase (MDH); assay: biochemical; format: biochemical, Pseudomonas putida MlO; conditions: for (b) Relative activity: 16 h at 4° C. then 10 min at 30° C., no addition gives 16
[3] = system: washed cells of P. putida MlO; format: cell-based, Pseudomonas putida MlO
[4] = biological target: T1, morphine dehydrogenase (MDH); assay: Non-oxidation of steroids by morphine dehydrogenase (Example 2 standard assay); format: biochemical, Pseudomonas putida MlO; conditions: morphine replaced by the steroid in the standard assay
[5] = biological target: T1, morphine dehydrogenase (MDH); assay: Substrate specificity of morphine dehydrogenase (Example 4); format: biochemical, Pseudomonas putida MlO; conditions: 0.35 μg purified enzyme, pH 9.5
[6] = biological target: T1, morphine dehydrogenase (MDH); assay: Cofactor requirement of MDH; format: biochemical, Pseudomonas putida MlO
[7] = system: acetylmorphine carboxylesterase (AMCE); assay: Substrate specificity of the AMCE (HPLC); format: biochemical, Rhodococcus Hl; conditions: substrate 1.0 mM, purified AMCE 5 U, potassium phosphate buffer pH 7.5, 30° C.
[8] = 10 min, read-out: (a) Relative activity
[9] = 16 h, read-out: (b) Relative activity

T1 sequence (Q02198 whole entry): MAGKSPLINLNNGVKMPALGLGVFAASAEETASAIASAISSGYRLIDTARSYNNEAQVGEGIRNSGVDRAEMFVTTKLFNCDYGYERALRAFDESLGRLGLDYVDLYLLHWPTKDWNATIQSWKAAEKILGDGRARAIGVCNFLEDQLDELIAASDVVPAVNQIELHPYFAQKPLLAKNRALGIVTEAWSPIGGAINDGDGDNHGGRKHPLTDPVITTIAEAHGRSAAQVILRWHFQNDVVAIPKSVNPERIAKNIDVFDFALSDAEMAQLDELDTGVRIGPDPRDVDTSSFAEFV

COc1ccc2c3c1O[C@H]1C(=O)C=C[C@H]4[C@@H](C2)N(C)CC[C@]314 [codeinone]
reverse direction reaction with NADPH [1]: catalysed the oxidation of NADPH | ability to serve as MDH substrate ([1]; pH 10): completely inactive

OCCS [Mercaptoethanol]
activity at 1000 µM [2, 8]: 100% | activity at 1000 µM [2, 9]: 73%

COC1=CC=C2[C@H]3Cc4ccc(OC)c5c4[C@@]2(CCN3C)[C@H]1O5 [thebaine]
metabolism by washed cells grown on heroin [3]: not degraded at all | ability to serve as MDH substrate ([1]; pH 10): completely inactive

CCN1C(=O)C=CC1=O [N-Ethylmaleimide]
activity at 50 µM [2, 8]: 100% | activity at 1000 µM [2, 8]: 58% | activity at 1000 µM [2, 9]: 23%

O=S(=O)([O-])[O-].[Cu+2] [CuSO4]
(a) Relative activity ([2]; reagent 0.1 mM, 10 min at room temperature, 100% = 67 U/mg): 34% | (b) Relative activity ([2]; reagent 0.1 mM): 5%

C[C@]12CC[C@@H](O)C[C@@H]1CC[C@@H]1[C@@H]2CC[C@]2(C)C(=O)CC[C@@H]12 (stereo in doubt) [androsterone]
steroid dehydrogenase activity of MDH [4]: No steroid dehydrogenase activity was detected | activity relative to 3 mM morphine ([5]; final concentration 10 Mm): zero

Oc1cccc2cccnc12 [8-Hydroxyquinoline]
(a) Relative activity ([2]; purified mdh, 10 min, 50 µM): 100%

C[C@]12CC[C@H]3[C@@H](CCC4=CC(=O)CC[C@@]43C)[C@@H]1CC[C@@H]2O [testosterone]
steroid dehydrogenase activity of MDH [4]: No steroid dehydrogenase activity was detected | activity relative to 3 mM morphine ([5]; final concentration 10 Mm): zero

c1ccc(-c2ccccn2)nc1 [2,2'-Dipyridyl]
activity at 50 µM [2, 8]: 75% | activity at 500 µM [2, 8]: 67% | activity at 500 µM [2, 9]: 9%

CN1CC[C@]23c4c5ccc(O)c4O[C@H]2[C@@H](O)C=C[C@H]3[C@H]1C5 [morphine]
specific activity as MDH substrate ([1]; pH 10): 0.002 μmol/min./mg. protein | dehydrogenase activity ([5]; 3 mM substrate): 0.0252 μmol NADPH/min

O=C(O)CN(CCN(CC(=O)O)CC(=O)O)CC(=O)O [EDTA]
activity at 500 µM [2, 8]: 104% | activity at 500 µM [2, 9]: 18%

NC(=O)c1ccc[n+]([C@@H]2O[C@H](COP(=O)([O-])OP(=O)(O)OC[C@H]3O[C@@H](n4cnc5c(N)ncnc54)[C@H](O)[C@@H]3O)[C@@H](O)[C@H]2O)c1 [NAD^+]
operability as cofactor for MDH [6]: shown not to be a substrate; also recorded: have not been found to be operable

CCCO [propanol]
activity relative to 3 mM morphine ([5]; alcohol substrates 50 mM): zero

CC(=O)O[C@H]1C=C[C@H]2[C@H]3Cc4ccc(O)c5c4[C@@]2(CCN3C)[C@H]1O5 [6-acetylmorphine]
ability to serve as MDH substrate ([1]; pH 10): completely inactive; also recorded: no activity | time taken to reduce the substrate concentration by 20% [7]: 4 h | activity relative to 3 mM morphine ([5]; alkaloid substrates 3 mM): zero

NC(=O)c1ccc[n+]([C@@H]2O[C@H](COP(=O)([O-])OP(=O)(O)OC[C@H]3O[C@@H](n4cnc5c(N)ncnc54)[C@H](OP(=O)(O)O)[C@@H]3O)[C@@H](O)[C@H]2O)c1 [NADP^+, nicotinamide adenine dinucleotide phosphate]
operability as cofactor for MDH [6]: absolute requirement

CC(=O)Oc1ccc2c3c1O[C@H]1[C@@H](O)C=C[C@H]4[C@@H](C2)N(C)CC[C@@]341 [3-acetylmorphine]
time taken to reduce the substrate concentration by 20% [7]: 0.033 h

3-acetylpyridine ADP
operability as cofactor for MDH [6]: operable

CCC(C)O (stereo not drawn) [butan-2-ol]
activity relative to 3 mM morphine ([5]; alcohol substrates 50 mM): zero

O[C@H](CS)[C@H](O)CS (racemic) [Dithiothreitol]
activity at 1000 µM [2, 8]: 97% | activity at 1000 µM [2, 9]: 64%

CN1CC[C@]23c4c5ccc(OCCN6CCOCC6)c4O[C@H]2[C@@H](O)C=C[C@H]3[C@H]1C5 [pholcodeine]
ability to serve as MDH substrate ([1]; pH 10): completely inactive; also recorded: Inactivity

c1cnc2c(c1)ccc1cccnc12 [1,10-Phenanthroline]
activity at 50 µM [2, 8]: 76% | activity at 500 µM [2, 8]: 61% | activity at 500 µM [2, 9]: 14%

O=C(O)c1cc[c]([Hg+])cc1.[OH-] [p-Hydroxymercuribenzoate]
(a) Relative activity ([2]; reagent 0.01 mM, 10 min at room temperature, 100% = 67 U/mg): 0% | (b) Relative activity ([2]; reagent 0.01 mM): 0% | activity recovered after incubation with 3 mM dithiothreitol for 10 min ([2]; reagent 0.01 mM, incubation (a)): 45% | activity recovered after incubation with 3 mM dithiothreitol for 10 min ([2]; reagent 0.01 mM, incubation (b)): 23%

OC1CCCCC1 [cyclohexanol]
activity relative to 3 mM morphine ([5]; alcohol substrates 50 mM): zero

OCc1ccccc1 [benzyl alcohol]
activity relative to 3 mM morphine ([5]; alcohol substrates 50 mM): zero

O=C(O)C(O)c1ccccc1 (racemic) [D,L-mandelic acid]
activity relative to 3 mM morphine ([5]; final concentration 10 Mm): zero

CC(C)O [propan-2-ol]
activity relative to 3 mM morphine ([5]; alcohol substrates 50 mM): zero

COc1ccc2c3c1O[C@H]1[C@@H](O)C=C[C@H]4[C@@H](C2)N(C)CC[C@@]341 [codeine]
metabolism by washed cells grown on heroin [3]: readily metabolised | activity relative to morphine ([1]; pH 10): 1.7 times that of morphine | activity relative to 3 mM morphine ([5]; alkaloid substrates 3 mM): 120%

CCO [ethanol]
ability to serve as MDH substrate [1]: negative result | ability to serve as MDH substrate ([1]; pH 10): completely inactive; also recorded: does not oxidise | activity relative to 3 mM morphine ([5]; alcohol substrates 50 mM): zero

CCOc1ccc2c3c1O[C@H]1[C@@H](O)C=C[C@H]4[C@@H](C2)N(C)CC[C@@]341 [ethylmorphine]
metabolism by washed cells grown on heroin [3]: readily metabolised | activity relative to morphine ([1]; pH 10): 1.2 times that of morphine

CN1CC[C@]23c4c5ccc(O[C@@H]6O[C@H](C(=O)O)[C@@H](O)[C@H](O)[C@H]6O)c4O[C@H]2[C@@H](O)C=C[C@H]3[C@H]1C5 [morphine glucuronide]
ability to serve as MDH substrate ([1]; pH 10): completely inactive; also recorded: Inactivity

COc1ccc2c3c1O[C@H]1C(=O)CC[C@@]4(O)[C@@H](C2)N(C)CC[C@]314 [oxycodone]
ability to serve as MDH substrate ([1]; pH 10): completely inactive; also recorded: no activity

O=C(O)CI [Iodoacetate]
activity at 100 µM [2, 8]: 61% | activity at 1000 µM [2, 8]: 58% | activity at 10000 µM [2, 8]: 54% | activity at 10000 µM [2, 9]: 30%

nicotinamide hypoxanthine diphosphate
operability as cofactor for MDH [6]: have not been found to be operable

COc1ccc2c3c1O[C@H]1[C@@H](O)CC[C@H]4[C@@H](C2)N(C)CC[C@@]341 [dihydrocodeine]
ability to serve as MDH substrate ([1]; pH 10): completely inactive; also recorded: did not show any activity | activity relative to 3 mM morphine ([5]; alkaloid substrates 3 mM): 7.1%
